molecular target: T1, ΔF508-CFTR (Homo sapiens, UniProt P13569, DEL508-508); assay: Membrane potential optical assay (FRET voltage-sensor dyes, VIPR), identification of potentiator compounds; format: cell-based; details: Table 3; assay not given
T1 construct: expressed in transfected cells
How it was run: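 NIH3T3 mouse fibroblasts stably expressing ΔF508-CFTR, cultured 24 h at 27 °C, were loaded with FRET voltage dyes CC2-DMPE and DiSBAC2(3). Double-addition format: first addition of Cl⁻-free (gluconate) medium with or without compound; membrane-potential change read as fluorescence on VIPR II.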

T1 sequence (P13569 with tags, fused parts or gaps DEL508-508): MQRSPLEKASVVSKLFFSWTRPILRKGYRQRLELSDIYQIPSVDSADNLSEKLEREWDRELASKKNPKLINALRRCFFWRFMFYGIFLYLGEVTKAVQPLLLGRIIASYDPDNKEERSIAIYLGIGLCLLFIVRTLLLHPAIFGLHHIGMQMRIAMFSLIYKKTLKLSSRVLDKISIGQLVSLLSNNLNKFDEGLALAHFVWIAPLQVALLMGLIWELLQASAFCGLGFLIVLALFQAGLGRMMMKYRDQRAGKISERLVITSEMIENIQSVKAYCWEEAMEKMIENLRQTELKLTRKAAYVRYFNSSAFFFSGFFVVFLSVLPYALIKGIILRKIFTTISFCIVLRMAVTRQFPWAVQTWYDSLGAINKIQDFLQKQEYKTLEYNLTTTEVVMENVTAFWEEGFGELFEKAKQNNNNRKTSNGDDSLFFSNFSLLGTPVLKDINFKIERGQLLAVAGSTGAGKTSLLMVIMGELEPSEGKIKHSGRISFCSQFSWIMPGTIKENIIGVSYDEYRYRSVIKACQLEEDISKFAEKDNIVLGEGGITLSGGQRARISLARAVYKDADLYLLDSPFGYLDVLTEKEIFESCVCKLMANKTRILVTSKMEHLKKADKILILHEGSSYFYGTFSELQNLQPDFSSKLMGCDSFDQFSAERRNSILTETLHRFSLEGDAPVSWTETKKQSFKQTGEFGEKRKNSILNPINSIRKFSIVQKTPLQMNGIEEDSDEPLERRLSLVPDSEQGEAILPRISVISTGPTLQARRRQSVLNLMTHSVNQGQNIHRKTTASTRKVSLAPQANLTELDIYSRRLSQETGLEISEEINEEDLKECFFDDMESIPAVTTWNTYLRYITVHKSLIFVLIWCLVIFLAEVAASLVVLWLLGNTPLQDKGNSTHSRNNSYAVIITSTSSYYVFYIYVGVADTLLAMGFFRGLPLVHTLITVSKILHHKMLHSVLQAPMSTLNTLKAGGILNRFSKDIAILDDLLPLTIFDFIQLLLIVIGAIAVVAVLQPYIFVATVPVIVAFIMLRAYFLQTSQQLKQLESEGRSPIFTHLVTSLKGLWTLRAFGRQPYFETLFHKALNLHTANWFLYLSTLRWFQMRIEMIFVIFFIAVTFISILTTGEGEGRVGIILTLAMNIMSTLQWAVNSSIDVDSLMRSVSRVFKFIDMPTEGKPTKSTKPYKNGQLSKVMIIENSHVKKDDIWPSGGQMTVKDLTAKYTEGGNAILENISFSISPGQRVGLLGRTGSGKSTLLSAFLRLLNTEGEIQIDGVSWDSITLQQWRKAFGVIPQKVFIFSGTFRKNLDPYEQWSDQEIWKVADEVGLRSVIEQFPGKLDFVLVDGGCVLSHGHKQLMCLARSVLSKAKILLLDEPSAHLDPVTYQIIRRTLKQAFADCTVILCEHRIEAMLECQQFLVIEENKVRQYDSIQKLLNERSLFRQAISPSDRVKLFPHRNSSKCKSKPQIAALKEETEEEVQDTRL

EC50 | Compound
10 to 25 µM | CCCc1ccc(NC(C)=O)cc1NC(=O)c1c[nH]c2ccccc2c1=O [Compound 232, N-(5-acetylamino-2-propyl-phenyl)-4-oxo-1H-quinoline-3-carboxamide]

same assay, conditions: Table 3; assay not given; read-out: % Activity (% Efficacy, relative efficacy)

Compound | Emax
O=C(Nc1ccc(C(O)(C(F)(F)F)C(F)(F)F)cc1)c1c[nH]c2ccccc2c1=O [Compound 150, 4-oxo-N-[4-[2,2,2-trifluoro-1-hydroxy-1-(trifluoromethyl)ethyl]phenyl]-1H-quinoline-3-carboxamide] | 25 to 100%
O=C(Nc1cc2c(cc1O)CCCC2)c1c[nH]c2ccccc2c1=O [Compound 56, 1,4-dihydro-N-(1,2,3,4-tetrahydro-6-hydroxynaphthalen-7-yl)-4-oxoquinoline-3-carboxamide] | 25 to 100%
O=C(Nc1ccc2cc[nH]c2c1)c1c(C(F)(F)F)[nH]c2ccccc2c1=O [Compound 184, N-(1H-indol-6-yl)-4-oxo-2-(trifluoromethyl)-1H-quinoline-3-carboxamide] | < 25%
O=C(Nc1cccc2cccnc12)c1c[nH]c2ccccc2c1=O [Compound 241, 4-oxo-N-(8-quinolyl)-1H-quinoline-3-carboxamide] | 25 to 100%
O=C(Nc1ccccc1-c1ccccc1Oc1ccccc1)c1c[nH]c2ccccc2c1=O [Compound 247, 4-oxo-N-[2-(2-phenoxyphenyl)phenyl]-1H-quinoline-3-carboxamide] | 25 to 100%
CC1(C)CCOc2cc(NC(=O)c3c[nH]c4ccccc4c3=O)ccc21 [Compound 204, N-(4,4-dimethylchroman-7-yl)-4-oxo-1H-quinoline-3-carboxamide] | 25 to 100%
O=C(Nc1ccccc1N1CCCCC1)c1c[nH]c2ccccc2c1=O [Compound 26, 4-oxo-N-[2-(1-piperidyl)phenyl]-1H-quinoline-3-carboxamide] | 25 to 100%
Cc1ccc(C)n1-c1ccccc1NC(=O)c1c[nH]c2ccccc2c1=O [Compound 297, N-[2-(2,5-dimethyl-1H-pyrrol-1-yl)phenyl]-4-oxo-1H-quinoline-3-carboxamide] | 25 to 100%
Cc1nc2cc(NC(=O)c3c[nH]c4ccccc4c3=O)ccc2s1 [Compound 44, N-(2-methylbenzothiazol-5-yl)-4-oxo-1H-quinoline-3-carboxamide] | 25 to 100%
CC(C)(C)OC(=O)N1CCC2(CCNc3cc(NC(=O)c4c[nH]c5ccccc5c4=O)ccc32)CC1 [Compound 238, 7′-[(4-oxo-1H-quinolin-3-ylcarbonyl)amino]-spiro[piperidine-4,4′(1′H)-quinoline], 2′,3′-dihydro-carboxylic acid tert-butyl ester] | 25 to 100%
O=C(Nc1ccccc1-c1nc2ccccc2[nH]1)c1c[nH]c2ccccc2c1=O [Compound 227, N-[2-(3H-benzoimidazol-2-yl)phenyl]-4-oxo-1H-quinoline-3-carboxamide] | < 25%
O=C(Nc1ccc2c(c1)NCCCC2)c1c[nH]c2ccccc2c1=O [Compound 10, 1,4-dihydro-N-(2,3,4,5-tetrahydro-1H-benzo[b]azepin-8-yl)-4-oxoquinoline-3-carboxamide] | 25 to 100%
CCCc1ccc(NC(C)=O)cc1NC(=O)c1c[nH]c2ccccc2c1=O [Compound 232, N-(5-acetylamino-2-propyl-phenyl)-4-oxo-1H-quinoline-3-carboxamide] | 25 to 100%
O=C(Nc1cc(NS(=O)(=O)CCN2CCOCC2)cc(C(F)(F)F)c1)c1c[nH]c2ccccc2c1=O [Compound 272, N-[3-(2-morpholinoethylsulfonylamino)-5-(trifluoromethyl)phenyl]-4-oxo-1H-quinoline-3-carboxamide] | 25 to 100%
CC(C)(C)c1ccccc1Oc1ccccc1NC(=O)c1c[nH]c2ccccc2c1=O [Compound 178, 4-oxo-N-[2-(2-tert-butylphenoxy)phenyl]-1H-quinoline-3-carboxamide] | 25 to 100%
CCOC(=O)Nc1ccc(C(C)C)c(NC(=O)c2c[nH]c3ccccc3c2=O)c1 [Compound 269, [4-isopropyl-3-[(4-oxo-1H-quinolin-3-yl)carbonylamino]phenyl]aminoformic acid ethyl ester] | 25 to 100%
CC(=O)c1ccc(-c2ccccc2NC(=O)c2c[nH]c3ccccc3c2=O)s1 [Compound 174, N-[2-(5-acetyl-2-thienyl)phenyl]-4-oxo-1H-quinoline-3-carboxamide] | 25 to 100%
O=C(Nc1ccccc1-c1ccc(CO)cc1)c1c[nH]c2ccccc2c1=O [Compound 302, N-[2-[4-(hydroxymethyl)phenyl]phenyl]-4-oxo-1H-quinoline-3-carboxamide] | 25 to 100%
O=C(Nc1ccc2c(c1)NCC21CC1)c1c[nH]c2ccccc2c1=O [Compound 22, 4-Oxo-1,4-dihydro-quinoline-3-carboxylic acid N-(1′,2′-dihydrospiro[cyclopropane-1,3′-[3H]indol]-6′-yl)-amide] | 25 to 100%
CN(C)CCNC(=O)c1ccc(-c2cc3cc[nH]c3cc2NC(=O)c2c[nH]c3ccccc3c2=O)cc1 [Compound 347, N-[5-[4-(2-dimethylaminoethylcarbamoyl)phenyl]-1H-indol-6-yl]-4-oxo-1H-quinoline-3-carboxamide] | 25 to 100%
O=C(Nc1cccc2ncccc12)c1c[nH]c2ccccc2c1=O [Compound 191, 4-oxo-N-(5-quinolyl)-1H-quinoline-3-carboxamide] | < 25%
CSc1ccc(-c2ccccc2NC(=O)c2c[nH]c3ccccc3c2=O)cc1 [Compound 223, N-[2-(4-methylsulfanylphenyl)phenyl]-4-oxo-1H-quinoline-3-carboxamide] | 25 to 100%

Now from value to compound:

Emax | Compound
25 to 100% | CC(C)(C)c1ccc(O)cc1NC(=O)c1c[nH]c2ccc(F)cc2c1=O [Compound 665, 6-fluoro-N-(5-hydroxy-2-tert-butyl-phenyl)-4-oxo-1H-quinoline-3-carboxamide]
25 to 100% | CC(C)(C)c1cc(C(C)(C)C)c(NC(=O)c2c[nH]c3ccc(Br)cc3c2=O)cc1O [Compound 553, 6-bromo-N-(5-hydroxy-2,4-ditert-butyl-phenyl)-4-oxo-1H-quinoline-3-carboxamide]
25 to 100% | CC(C)c1cccc(C(C)C)c1NC(=O)c1c[nH]c2ccccc2c1=O [Compound 466, N-(2,6-diisopropylphenyl)-4-oxo-1H-quinoline-3-carboxamide]
25 to 100% | COc1cc(NC(=O)c2c[nH]c3ccccc3c2=O)ccc1-n1c(C)ccc1C [Compound 560, N-[4-(2,5-dimethylpyrrol-1-yl)-3-methoxy-phenyl]-4-oxo-1H-quinoline-3-carboxamide]
25 to 100% | CC(C)(C)c1cc(C(C)(C)C)c(NC(=O)c2c[nH]c3cccc(O)c3c2=O)cc1O [Compound 464, 5-hydroxy-N-(5-hydroxy-2,4-ditert-butyl-phenyl)-4-oxo-1H-quinoline-3-carboxamide]
< 25% | Cn1c(=O)oc2ccc(NC(=O)c3c[nH]c4ccccc4c3=O)cc21 [Compound 474, N-(3-methyl-2-oxo-3H-benzooxazol-5-yl)-4-oxo-1H-quinoline-3-carboxamide]
25 to 100% | Cc1cccc2[nH]cc(C(=O)Nc3ccc(N4CC[C@@H](C)C4)cc3C(F)(F)F)c(=O)c12 [Compound 613, (R)-5-methyl-N-(4-(3-methylpyrrolidin-1-yl)-2-(trifluoromethyl)phenyl)-4-oxo-1,4-dihydroquinoline-3-carboxamide]
25 to 100% | CC(=O)c1ccc2c(=O)c(C(=O)Nc3cc(O)c(C(C)(C)C)cc3C(C)(C)C)c[nH]c2c1 [Compound 604, 7-acetyl-N-(5-hydroxy-2,4-ditert-butyl-phenyl)-4-oxo-1H-quinoline-3-carboxamide]
25 to 100% | O=C(Nc1ccc(C23CC4CC(CC(C4)C2)C3)cc1)c1c[nH]c2ccccc2c1=O [Compound 455, N-[4-(1-adamantyl)phenyl]-4-oxo-1H-quinoline-3-carboxamide]
25 to 100% | Cc1cccc2[nH]cc(C(=O)Nc3ccc(N4[C@H](C)CC[C@@H]4C)cc3C(F)(F)F)c(=O)c12 [Compound 592, N-(4-((2R,5S)-2,5-dimethylpyrrolidin-1-yl)-2-(trifluoromethyl)phenyl)-5-methyl-4-oxo-1,4-dihydroquinoline-3-carboxamide]
25 to 100% | CC(C)(C)c1c[nH]c2cc(NC(=O)c3c[nH]c4ccccc4c3=O)ccc12 [Compound 478, 4-oxo-N-(3-tert-butyl-1H-indol-6-yl)-1H-quinoline-3-carboxamide]
25 to 100% | O=C(Nc1ccccc1-c1ccc(OC(F)(F)F)cc1)c1c[nH]c2ccccc2c1=O [Compound 388, 4-oxo-N-[2-[4-(trifluoromethoxy)phenyl]phenyl]-1H-quinoline-3-carboxamide]
25 to 100% | O=C(Nc1cc(C(=O)O)c2cc[nH]c2c1)c1c[nH]c2ccccc2c1=O [Compound 711, 6-[(4-oxo-1H-quinolin-3-yl)carbonylamino]-1H-indole-4-carboxylic acid]
25 to 100% | CC(C)(C)c1cc(C(C)(C)C)c(NC(=O)c2c[nH]c3cc(C#N)ccc3c2=O)cc1O [Compound 548, 7-cyano-N-(5-hydroxy-2,4-ditert-butyl-phenyl)-4-oxo-1H-quinoline-3-carboxamide]
25 to 100% | CC(C)N1CCN(c2ccc(NC(=O)c3c[nH]c4ccccc4c3=O)c(C(F)(F)F)c2)CC1 [Compound 639, N-[4-(4-isopropylpiperazin-1-yl)-2-(trifluoromethyl)phenyl]-4-oxo-1H-quinoline-3-carboxamide]
25 to 100% | COc1ccc2[nH]cc(C(=O)Nc3cc(O)c(C4(C)CCCCC4)cc3F)c(=O)c2c1 [Compound 584, N-[2-fluoro-5-hydroxy-4-(1-methylcyclohexyl)-phenyl]-6-methoxy-4-oxo-1H-quinoline-3-carboxamide]
25 to 100% | COC(=O)c1c(NC(=O)c2c[nH]c3ccccc3c2=O)csc1C(C)(C)C [Compound 690, methyl 4-[(4-oxo-1H-quinolin-3-yl)carbonylamino]-2-tert-butyl-thiophene-3-carboxylate]
< 25% | CCOc1cccc2c(=O)c(C(=O)Nc3cc(O)c(C(C)(C)C)cc3F)c[nH]c12 [Compound 526, 8-ethoxy-N-(2-fluoro-5-hydroxy-4-tert-butyl-phenyl)-4-oxo-1H-quinoline-3-carboxamide]

Reference: US8802700B2 (Vertex Pharmaceuticals Incorporated, priority 2010, dated 2014)
